From ChEMBL document CHEMBL1201862, “PubChem BioAssay data set” (2004)
Active and inactive are the calls of the source.

Legend:
[1] = inhibitors of intracellular T. cruzi replication, confirmation, NIH3T3 host cells, beta-gal luminescence (AID 2044); assay type: functional, cell-based;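 further: intracellular parasites grown in NIH/3T3 mouse fibroblasts as host cells; luminescent beta-galactosidase reporter signal from transgenic T. cruzi replicating inside host cells; inhibitors lower the luminescence signal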
[2] = molecular target: T1, Tyrosine-protein phosphatase non-receptor type 22 (Homo sapiens, UniProt Q9Y2R2); assay type: functional;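 further: confirmatory dose-response retesting of primary uHTS hits against LYP; potency is for inhibition of phosphatase activity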
T1 sequence (Q9Y2R2 whole entry): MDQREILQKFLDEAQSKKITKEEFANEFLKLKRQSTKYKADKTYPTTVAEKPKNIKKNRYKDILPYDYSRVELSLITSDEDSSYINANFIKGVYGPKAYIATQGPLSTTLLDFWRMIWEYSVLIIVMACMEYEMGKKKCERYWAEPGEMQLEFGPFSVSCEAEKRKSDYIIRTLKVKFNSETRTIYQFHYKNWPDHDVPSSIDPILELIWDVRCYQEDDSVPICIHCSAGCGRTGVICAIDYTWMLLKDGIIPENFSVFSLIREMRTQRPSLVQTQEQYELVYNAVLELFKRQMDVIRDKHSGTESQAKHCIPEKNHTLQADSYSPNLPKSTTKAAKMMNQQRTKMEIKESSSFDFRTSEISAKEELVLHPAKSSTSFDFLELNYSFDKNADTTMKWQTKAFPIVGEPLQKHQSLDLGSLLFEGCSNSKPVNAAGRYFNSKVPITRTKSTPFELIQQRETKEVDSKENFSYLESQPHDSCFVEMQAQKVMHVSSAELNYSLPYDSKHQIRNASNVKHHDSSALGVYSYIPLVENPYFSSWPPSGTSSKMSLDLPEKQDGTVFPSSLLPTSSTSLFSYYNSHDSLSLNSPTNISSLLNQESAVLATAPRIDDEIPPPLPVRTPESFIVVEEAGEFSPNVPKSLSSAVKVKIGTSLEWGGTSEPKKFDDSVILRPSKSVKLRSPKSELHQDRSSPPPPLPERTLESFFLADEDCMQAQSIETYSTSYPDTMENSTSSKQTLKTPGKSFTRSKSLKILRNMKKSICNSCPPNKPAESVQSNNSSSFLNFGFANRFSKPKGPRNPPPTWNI

[3] = molecular target: T2, Long-chain-fatty-acid--AMP ligase FadD28 (Mycobacterium tuberculosis, UniProt P9WQ59); experiment: Fluorescence polarization aasay to screen for inhibitors that compete for the binding of FadD28 to a bisubstrate Measured in Biochemical System Using Plate Reader - 2147-01_Inhibitor_Dose_CherryPick_Activity.; assay type: functional, Mycobacterium tuberculosis H37Rv
T2 sequence (P9WQ59 whole entry): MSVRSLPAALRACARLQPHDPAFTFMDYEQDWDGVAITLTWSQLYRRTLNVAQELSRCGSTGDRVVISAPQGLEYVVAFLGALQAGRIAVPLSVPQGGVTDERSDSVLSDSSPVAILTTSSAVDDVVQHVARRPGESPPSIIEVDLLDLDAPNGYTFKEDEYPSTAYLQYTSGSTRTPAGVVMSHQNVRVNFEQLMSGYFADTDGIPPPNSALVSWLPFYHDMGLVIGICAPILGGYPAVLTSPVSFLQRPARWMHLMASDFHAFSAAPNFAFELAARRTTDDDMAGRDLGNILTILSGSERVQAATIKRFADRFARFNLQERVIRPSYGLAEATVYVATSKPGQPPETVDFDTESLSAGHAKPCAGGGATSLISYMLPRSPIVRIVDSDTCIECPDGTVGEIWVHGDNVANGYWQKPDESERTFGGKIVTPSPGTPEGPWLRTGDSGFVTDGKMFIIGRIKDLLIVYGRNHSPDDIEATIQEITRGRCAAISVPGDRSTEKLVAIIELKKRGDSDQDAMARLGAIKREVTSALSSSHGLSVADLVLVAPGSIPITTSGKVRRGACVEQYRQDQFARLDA

[4] = molecular target: T3, Tyrosine-protein phosphatase non-receptor type 7 (Homo sapiens, UniProt P35236); assay type: functional
T3 sequence (P35236 whole entry): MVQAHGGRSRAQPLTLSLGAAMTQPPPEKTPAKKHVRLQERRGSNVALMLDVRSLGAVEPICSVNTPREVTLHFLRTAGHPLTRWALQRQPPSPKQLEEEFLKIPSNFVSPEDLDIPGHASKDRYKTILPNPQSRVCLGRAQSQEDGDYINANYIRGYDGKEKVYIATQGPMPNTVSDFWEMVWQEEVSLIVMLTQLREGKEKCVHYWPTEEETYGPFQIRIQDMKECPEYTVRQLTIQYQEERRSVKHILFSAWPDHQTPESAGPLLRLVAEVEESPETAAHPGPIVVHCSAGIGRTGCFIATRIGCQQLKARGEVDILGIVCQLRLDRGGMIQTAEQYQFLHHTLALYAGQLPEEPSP

INS1 = experiment: beta cell apoptosis inhibitors, cytokine rescue, dose response, luminescence, retest (AID 449756); assay type: functional, cell-based; conditions: Rattus norvegicus;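 further: cell death triggered by IL-1 beta plus TNF-alpha plus IFN-gamma mixture; protective hits raise ATP signal compared with cytokine alone wells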
[5] = molecular target: T4, Sentrin-specific protease 8 (Homo sapiens, UniProt Q96LD8); assay type: functional;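 further: kinetic enzyme assay of SENP8 cleaving a Nedd8 protein substrate, dose-response confirmation of screening hits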
T4 sequence (Q96LD8 whole entry): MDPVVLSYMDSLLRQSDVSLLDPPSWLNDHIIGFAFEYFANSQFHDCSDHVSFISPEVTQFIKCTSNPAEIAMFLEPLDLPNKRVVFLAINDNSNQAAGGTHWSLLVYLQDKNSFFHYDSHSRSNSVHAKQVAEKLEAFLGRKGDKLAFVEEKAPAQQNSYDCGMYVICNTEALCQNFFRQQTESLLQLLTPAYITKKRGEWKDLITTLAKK

Caspase-6 = molecular target: T5, Caspase-6 (Homo sapiens, UniProt P55212); experiment: human caspase-6 inhibitors, dose response, biochemical, VEID-R110 fluorescence, cherry-pick (AID 720632)
T5 sequence (P55212 whole entry): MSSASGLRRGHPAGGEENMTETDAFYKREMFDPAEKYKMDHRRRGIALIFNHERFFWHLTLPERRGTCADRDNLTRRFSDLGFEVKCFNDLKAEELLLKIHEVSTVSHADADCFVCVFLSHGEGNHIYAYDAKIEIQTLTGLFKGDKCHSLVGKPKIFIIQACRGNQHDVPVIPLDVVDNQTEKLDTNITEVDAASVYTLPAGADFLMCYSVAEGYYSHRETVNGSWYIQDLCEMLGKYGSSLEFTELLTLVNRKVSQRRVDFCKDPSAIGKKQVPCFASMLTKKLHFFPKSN

CCN1/C(=C/c2ccc3cc(C)ccc3[n+]2CC)Sc2cc(C)c(C)cc21
EC50 [1]: < 0.1 µM (active)

Nc1ccc2nc3c(O)nc(S)nc3nc2c1
IC50 [2]: 76.3 µM (active)
AC50 [3]: 46.1 µM (active)
IC50 [4]: > 79.4 µM (inactive)

Cc1oc2c(c1C(=O)c1ccccc1)C(=O)C(=O)c1ccccc1-2
AC50 (INS1): 2.71 µM (active)

O=C1CCCC2=C1C1(O)C(=O)c3ccccc3C1(O)O2 (centres undefined)
IC50 [5]: 6.65 µM (active)

CSc1ccc(C=NNc2ccc(S(=O)(=O)Nc3ccccc3C(=O)O)cc2[N+](=O)[O-])cc1
AC50 (Caspase-6): 6.66 µM (active)

O=C1C(Cl)=C(NCCN2CCCCC2)C(=O)c2ccccc21
AC50 (INS1): 4.41 µM (active)
EC50 [1]: 0.509 µM (active)

O=C(O)COc1ccc(/C=N/NC(=O)c2ccc(-c3csc(Nc4ccc(Cl)cc4)n3)cc2)cc1
IC50 [2]: < 1.24 µM (active)
IC50 [4]: < 1.24 µM (active)

COc1cc(NCCCNC(C)C)c2nccc(C)c2c1
AC50 (Caspase-6): 33.5 µM (active)
IC50 [5]: 1.09 µM (active)

CC(/C=C1\SC(=S)N(NS(=O)(=O)c2ccccc2)C1=O)=C\c1ccccc1
AC50 [3]: > 100 µM (inactive)
